Results taken from patent US5466829A, “Ginkgolide derivatives and a process for preparing them” (priority 1991, dated 1995).
Read-outs that look alike come from different tables or passages of the source.

Tested on: Platelet Activating Factor induced platelet aggregation
Test: Platelet aggregation inhibiting effect of rabbit by PAF (platelet rich plasma, Chrono-log aggregometer)
Type: cell-based, New Zealand White Rabbit
Details: for IC50: read-out: IC50, 50% of the inhibition concentration, platelet aggregation inhibiting effect; for platelet aggregation inhibiting activity compared with Ginkgolide B: rabbit PRP, PAF-induced, comparison in words
Method: The blood gathering in the ear artery of the New Zealand White Rabbit of weight 3~3.5 kg was mixed with 3.8% sodium citrate solution at the ratio of 1:9. After centrifuging for 10 minutes at 1000 rpm, the upper Platelet Rich Plasma(PRP) layer was taken. Again after centrifuging for 10 minutes at 3000 rpm, the upper Platelet Poor Plasma(PPP) was taken.
After measuring the platelet figures of the PRP using the Coulter counter, the platelet figures was adjusted to 3×10^5 /μl by diluting with PPP.
The ginkgolide derivatives which were obtained from the above example 1 and 5~9 was investigated platelet aggregation inhibiting effect by that 270 μl of PRP and 30 μl of the derivative solution was treated using the Chrono-log aggregometer which the light tansmittance of PPP was fixed to 100% and the light tansmittance of PRP was fixed to 0% and then 30 μl of Platelet Activating Factor of 5×10^-9 M and 5×10^-8 M concentration was added.
Then, IC50, 50% of the inhibition concentration, of derivatives was searched.

[1] = Oryctolagus cuniculus, Platelet
[2] = Oryctolagus cuniculus, Platelet, rabbit PRP adjusted to 3×10^5 /μl platelets, aggregation induced by PAF of 5×10^-9 M and 5×10^-8 M
[3] = rabbit PRP adjusted to 3×10^5 /μl platelets, aggregation induced by PAF of 5×10^-9 M and 5×10^-8 M

Compound	IC50 [1] [nM]	platelet aggregation inhibiting activity compared with Ginkgolide B	IC50 [2] [nM]	IC50 [3] [nM]
C[C@H]1C(=O)OC2C1C13OC4OC(=O)C(O)C45C(C(C)(C)C)CC(OC1=O)C35C2O (stereo partly drawn) [formula (I-b), 3-dehydroxy-14-epi-Ginkgolide B]	13000	–	–	–
C[C@@H]1C(=O)OC2C1C13OC4OC(=O)C(O)C45C(C(C)(C)C)CC(OC1=O)C35C2O (some centres unmarked) [formula (I-a), 3-dehydroxy-Ginkgolide B]	2640	low than the Ginkgolide B in its activity	–	–
C[C@@H]1C(=O)OC2C3OCOC4C(=O)OC5OC6(C(=O)OC7CC(C(C)(C)C)C54C736)C21O (some centres unmarked) [formula (II), 1,10-methylenedioxy-Ginkgolide B]	–	low than the Ginkgolide B in its activity	1050	–
CC1C(=O)OC2C(O)C34C5CC(C(C)(C)C)C36C(OC(=O)C6O)OC4(C(=O)O5)C12O (centres unmarked) [Ginkgolide B, reference compound]	–	–	427	–
3-dehydroxy- 1,10-methylenedioxy-Ginkgolide B [formula (IV)]	–	low than the Ginkgolide B in its activity	–	4950
C[C@@H]1C(=O)O[C@H]2C[C@@]34[C@H]5C[C@@H](C(C)(C)C)[C@]36[C@@H](OC(=O)[C@@H]6O)O[C@@]4(C(=O)O5)[C@]21O [Ginkgolide A, reference compound]	1750	–	–	–
3-dihydroxy-1,10-methylenedioxy-14-epi-Ginkgolide B [formula (III)]	–	low than the Ginkgolide B in its activity	–	6980
